Experimental findings from ChEMBL document CHEMBL2073804, “Transport of the beta -O-glucuronide conjugate of the tobacco-specific carcinogen 4-(methylnitrosamino)-1-(3-pyridyl)-1-butanol (NNAL) by the multidrug resistance protein 1 (MRP1). Requirement for glutathione or a non-sulfur-containing analog” (J Biol Chem, 2001) are described below.

This data set addresses ATP-binding cassette sub-family C member 2 (Homo sapiens, UniProt Q92887). Description: TP_TRANSPORTER: uptake in membrane vesicle from MRP2-expressing HEK293T cells. The class given is functional, cell membranes. To be noted: hek293.

ATP-binding cassette sub-family C member 2, sequence (Q92887 whole entry): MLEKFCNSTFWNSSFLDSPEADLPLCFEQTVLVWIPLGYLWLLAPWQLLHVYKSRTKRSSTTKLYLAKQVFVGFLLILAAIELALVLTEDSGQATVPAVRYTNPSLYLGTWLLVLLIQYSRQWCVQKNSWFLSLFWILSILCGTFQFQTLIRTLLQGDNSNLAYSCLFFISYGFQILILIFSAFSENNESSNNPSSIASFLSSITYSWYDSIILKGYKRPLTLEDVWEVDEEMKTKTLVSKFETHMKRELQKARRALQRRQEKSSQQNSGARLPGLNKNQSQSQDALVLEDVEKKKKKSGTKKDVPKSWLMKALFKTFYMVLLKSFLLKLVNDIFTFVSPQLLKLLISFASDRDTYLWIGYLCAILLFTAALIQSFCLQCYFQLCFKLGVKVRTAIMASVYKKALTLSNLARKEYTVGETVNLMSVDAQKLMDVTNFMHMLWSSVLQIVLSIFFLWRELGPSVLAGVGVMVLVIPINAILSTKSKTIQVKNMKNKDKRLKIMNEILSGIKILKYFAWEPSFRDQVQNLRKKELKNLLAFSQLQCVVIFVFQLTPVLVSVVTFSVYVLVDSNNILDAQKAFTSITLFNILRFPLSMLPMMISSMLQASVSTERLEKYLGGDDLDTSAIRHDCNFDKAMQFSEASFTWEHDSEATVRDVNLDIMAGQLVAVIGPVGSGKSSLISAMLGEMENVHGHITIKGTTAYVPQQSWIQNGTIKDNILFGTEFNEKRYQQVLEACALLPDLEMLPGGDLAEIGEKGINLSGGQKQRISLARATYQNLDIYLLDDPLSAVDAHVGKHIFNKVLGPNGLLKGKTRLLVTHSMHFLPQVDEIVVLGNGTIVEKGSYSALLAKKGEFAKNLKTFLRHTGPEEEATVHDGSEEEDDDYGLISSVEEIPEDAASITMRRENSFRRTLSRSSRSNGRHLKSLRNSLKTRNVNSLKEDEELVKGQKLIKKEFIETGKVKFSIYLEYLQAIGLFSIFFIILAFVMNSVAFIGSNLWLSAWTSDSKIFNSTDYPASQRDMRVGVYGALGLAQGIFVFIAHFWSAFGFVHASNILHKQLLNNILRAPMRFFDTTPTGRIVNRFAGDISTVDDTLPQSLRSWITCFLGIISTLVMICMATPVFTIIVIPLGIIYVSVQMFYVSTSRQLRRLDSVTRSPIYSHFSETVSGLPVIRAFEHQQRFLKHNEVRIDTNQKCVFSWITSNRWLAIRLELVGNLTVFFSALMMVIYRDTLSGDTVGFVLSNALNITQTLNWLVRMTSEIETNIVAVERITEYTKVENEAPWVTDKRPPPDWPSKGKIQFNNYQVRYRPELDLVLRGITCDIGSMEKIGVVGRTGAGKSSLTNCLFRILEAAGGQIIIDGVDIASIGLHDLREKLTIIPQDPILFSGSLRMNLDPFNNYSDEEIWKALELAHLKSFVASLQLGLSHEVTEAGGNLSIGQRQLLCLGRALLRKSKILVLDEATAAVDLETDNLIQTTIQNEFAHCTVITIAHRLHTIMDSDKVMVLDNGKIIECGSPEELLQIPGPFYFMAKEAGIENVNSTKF

In the case of `CN(CCCC(C[C@@H]1O[C@H](C(=O)O)[C@@H](O)[C@H](O)[C@H]1O)c1cccnc1)N=O` (stereo partly specified), the Activity entry was “substrate [+]”.
